Assay results reported in US20240002846A1, “COMPOSITIONS AND METHODS FOR THE DIAGNOSIS AND TREATMENT OF ITCH” (Duke University, priority 2020, published 2024).
Entries after “also recorded” stand apart in the source; their conditions may differ.

Tests used:
mice [1] = test: Scratching behavior after i.d. injection into dorsal neck skin; format: in vivo, mouse; conditions: for scratching behavior (itch) induced by i.d. injection of lipid: i.d. into dorsal neck, LPA 18:1 500 μg, LPC 50-500 μg, LPC species at the same dose
Procedure: (§1) Behavioral assessment. Mice were shaved at the dorsal neck 1 d before experiments. Mice were allowed to acclimate to a Plexiglas chamber for at least 30 min before testing and received intradermal (i.d.) injection of 50 μL of LPA 18:1, LPC, LPC 14:0, LPC 16:0, LPC 18:0, LPC 18:1, miR-146a mimic, miR-146a scramble, ATP or vehicles through a 30-gauge needle (Becton Dickinson, Franklin Lakes, NJ) into the neck skin. After injections, mice were immediately placed back to the chamber, and the scratching behavior was recorded by a Panasonic video camera for 30 min. Hind limb scratching behavior directed toward the injected area at the nape of neck was observed. One scratch is defined as a lifting of the hind limb toward the injection site and then a replacing of the limb back to the floor, regardless of how many scratching strokes take place between those two movements. Behavioral analysis was conducted by observers blinded to genotype.

hTRPV4 = molecular target: T1, hTRPV4 (Homo sapiens, UniProt Q9HBA0); test: Ca2+ imaging in HEK cells transfected with hTRPV4; format: cell-based; conditions: inhibitor 10 μM
T1 construct: expressed in transfected cells; host or cells: HEK293 (ATCC CRL-1573)
Procedure: Cell culture and transfection. HEK293 cells (ATCC® CRL-1573) were cultured on poly-D-lysine coated coverslips in 24-well plate containing DMEM media with high-Glucose (Gibco, Gaithersburg, MD) supplemented with 10% fetal bovine serum (FBS, HyClone Laboratories, Logan, UT) and 100 U/mL of penicillin/streptomycin (Gibco, Gaithersburg, MD). Cell cultures were maintained with 5% of CO2 in a humidified incubator at 37° C. HEK cells were transfected with rat or human wild type or mutant TRPV4 channels with EGFP or YFP coupled to their C-termini (1.5 μg of plasmid for excised patch clamp and Ca^2+ imaging and 200 ng for single-channel experiments). The jetPEI™ Polyplus transfection reagent (Polyplus Transfection, New York, NY) for electrophysiology or Lipofectamine™ 2000 Reagent (Invitrogen, Waltham, MA) for Ca^2+ imaging were used for transfections per manufacturer's instructions as previously described (Chen et al. Pain 2014, 155, 2662-2672; Morales-Lazaro et al. Nat. Commun. 2016, 7, 13092). To investigate whether miR-146a can directly activate TRPV1 channels or indirectly via TLRs, HEK293 cells were transfected with rTRPV1 or co-transfected rTRPV1 with rTLR7, rTLR2, or rTLR6 (Addgene, Watertown, MA) for Ca^2+ imaging assay. Control cells were transfected with GFP or YFP.
In vitro and ex vivo Ca^2+ imaging. Routine procedures were followed for Ca^2+ imaging in cultured DRG sensory neurons, epidermal keratinocytes, and HEK cells (Chen et al. J. Biol. Chem. 2016, 291, 10252-10262; Chen et al. Pain 2014, 155, 2662-2672). Ca^2+ imaging of cultured cells in response to chemicals was conducted after loading with 5 μM Fura2-AM (Invitrogen, Waltham, MA) for 45 min after a ratiometric Ca^2+-imaging protocol with 340/380-nm blue light for dual excitation. Ratios of emissions were acquired at 0.5 Hz. ΔR/R0 was determined as the fraction of the increase of a given ratio over baseline ratio divided by baseline ratio. To investigate the effects of the TRPV4 inhibitors GSK205 or HC067047, the PLC inhibitor U73122, the Gag G Protein inhibitor BIM46187, the Gβγ G protein inhibitor Gallein, the TRPV1 inhibitor SB366791, the TRPA1 inhibitor HC030031, and IPP for TRPV3, on LPA-induced Ca^2+ influx, LPC-induced Ca^2+ influx, or miR-146α-induced Ca^2+ influx, cells were incubated with the inhibitors for 15 min before stimulation. Control cells received vehicles.

mouse keratinocytes = test: Ca2+ imaging in cultured mouse keratinocytes; format: cell-based; conditions: for effect on LPC 18:1 (10 μM)-induced Ca2+ influx (GPCR-signaling inhibitors): inhibitor 10 μM; for LPA (18:1) induced Ca2+ influx: up to 30 μM
Procedure: Basal keratinocytes were separated from the cornified sheets by filtration through a […] cell strainer. Keratinocytes were plated on collagen I-coated dishes or glass coverslips and grown in EME media (Gibco, Gaithersburg, MD) containing 8% chelex (Bio-rad, Hercules, CA)-treated FBS with the final Ca^2+ adjusted to 0.05 mM, bovine pituitary extract (50 μg/mL), epidermal growth factor (5 ng/mL), and lx antibiotics/antimycotics (Gibco, Gaithersburg, MD) in a humidified incubator with 5% CO2 at 37° C. for 5-7 days until use. To knockdown Trpv4 in isolated keratinocytes from newborn keratinocyte-Trpv4 cKO mice, cells were treated with 4-OH tamoxifen at 500 nM for 72 h.
(§2) In vitro and ex vivo Ca^2+ imaging. […] Ca^2+ imaging of cultured cells in response to chemicals was conducted after loading with 5 μM Fura2-AM (Invitrogen, Waltham, MA) for 45 min after a ratiometric Ca^2+-imaging protocol with 340/380-nm blue light for dual excitation. Ratios of emissions were acquired at 0.5 Hz. ΔR/R0 was determined as the fraction of the increase of a given ratio over baseline ratio divided by baseline ratio. […] Control cells received vehicles.

human keratinocytes = test: Ca2+ imaging in cultured human keratinocytes; format: cell-based; conditions: for effect on LPC 18:1 (10 μM)-induced Ca2+ influx (GPCR-signaling inhibitors): inhibitor 10 μM; for LPA (18:1) induced Ca2+ influx: up to 30 μM
Procedure: In brief, surgically discarded foreskin samples, obtained from Duke Children's Hospital in accordance to institutionally approved IRB protocol, were incubated with Dispase (Gibco, Gaithersburg, MD, 4 U/mL) for 12-16 h at 4° C. followed by 0.05% trypsin (Gibco, Gaithersburg, MD) for 10-20 min at 37° C. Cells were maintained in keratinocyte serum-free media (Invitrogen, Waltham, MA) with 5% CO2 at 37° C. and used at passage 2-3.
as §2

mice [2] = test: Effect of inhibitor pretreatment on LPA-, LPC- or miR-146a-induced scratching behavior; format: in vivo, mouse; conditions: for effect on scratching evoked by i.d. miR-146a (4 nmol) (TLR inhibitors): i.p. 10 mg/kg
Procedure: as §1, with “Mice were allowed to acclimate to a Plexiglas chamber for at least 30 min before testing and received intradermal (i.d.) injection of 50 μL of LPA 18:1, LPC, LPC 14:0, LPC 16:0, LPC 18:0, LPC 18:1, miR-146a mimic, miR-146a scramble, ATP or vehicles through a 30-gauge needle (Becton Dickinson, Franklin Lakes, NJ) into the neck skin.” left out
Control animals received the same volume of vehicles.
Lumbar puncture was made with a 30G-needle and drugs at 5 μL of volume were delivered. Scratching behavior assay was started approximately 2 weeks after resiniferatoxin treatment.

T1 sequence (Q9HBA0 whole entry): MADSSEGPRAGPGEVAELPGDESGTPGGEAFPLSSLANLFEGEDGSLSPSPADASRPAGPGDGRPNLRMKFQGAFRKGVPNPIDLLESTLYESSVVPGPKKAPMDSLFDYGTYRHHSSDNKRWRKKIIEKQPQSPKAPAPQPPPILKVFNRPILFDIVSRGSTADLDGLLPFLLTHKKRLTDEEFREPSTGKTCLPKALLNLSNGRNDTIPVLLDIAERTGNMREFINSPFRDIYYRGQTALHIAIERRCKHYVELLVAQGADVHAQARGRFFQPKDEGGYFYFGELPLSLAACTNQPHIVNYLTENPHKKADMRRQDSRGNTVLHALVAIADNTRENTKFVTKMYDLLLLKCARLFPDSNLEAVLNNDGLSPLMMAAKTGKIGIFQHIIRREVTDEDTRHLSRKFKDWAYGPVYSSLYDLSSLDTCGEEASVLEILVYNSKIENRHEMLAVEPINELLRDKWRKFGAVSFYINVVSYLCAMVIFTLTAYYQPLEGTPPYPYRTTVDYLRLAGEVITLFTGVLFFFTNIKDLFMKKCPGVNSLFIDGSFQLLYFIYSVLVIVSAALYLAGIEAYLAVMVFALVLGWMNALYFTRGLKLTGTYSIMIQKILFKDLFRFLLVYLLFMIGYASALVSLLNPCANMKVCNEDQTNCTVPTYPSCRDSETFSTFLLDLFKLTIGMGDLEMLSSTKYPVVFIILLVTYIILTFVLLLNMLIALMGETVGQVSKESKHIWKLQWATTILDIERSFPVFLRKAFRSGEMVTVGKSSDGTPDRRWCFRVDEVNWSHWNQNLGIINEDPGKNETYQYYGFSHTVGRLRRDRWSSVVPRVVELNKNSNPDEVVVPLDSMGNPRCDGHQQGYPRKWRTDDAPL

Nc1ncnc2c1ncn2[C@@H]1O[C@H](COP(=O)(O)OP(=O)(O)OP(=O)(O)O)[C@@H](O)[C@H]1O [ATP, adenosine triphosphate]
scratching behavior induced by i.d. ATP (mice [1]; i.d. 10 nmol or 100 nmol vs normal saline): not to have any pruritogenic effects; also recorded: did not elicit significant scratching behaviors

N[C@@H](CSSC[C@H](N)C(=O)N1CCn2cc(-c3ccccc3)nc2[C@@H]1CC1CCCCC1)C(=O)N1CCn2cc(-c3ccccc3)nc2[C@@H]1CC1CCCCC1 [BIM46187]
effect on LPC 18:1 (10 μM)-induced Ca2+ influx (GPCR-signaling inhibitors) (hTRPV4): not significantly altered | effect on LPC 18:1 (10 μM)-induced Ca2+ influx (GPCR-signaling inhibitors) (hTRPV4; listed as BIM-46187): no inhibitory effects | effect on LPC 18:1 (10 μM)-induced Ca2+ influx (GPCR-signaling inhibitors) (mouse keratinocytes): not significantly altered | effect on LPC 18:1 (10 μM)-induced Ca2+ influx (GPCR-signaling inhibitors) (mouse keratinocytes; listed as BIM-46187): no inhibitory effects | effect on LPC 18:1 (10 μM)-induced Ca2+ influx (GPCR-signaling inhibitors) (human keratinocytes): not significantly altered | effect on LPC 18:1 (10 μM)-induced Ca2+ influx (GPCR-signaling inhibitors) (human keratinocytes; listed as BIM-46187): no inhibitory effects

c1cc(-c2nc3ccc(OCCCN4CCCC4)cc3o2)ccc1OCCCN1CCCC1 [E6446]
effect on scratching evoked by i.d. miR-146a (4 nmol) (TLR inhibitors) (mice [2]): not significantly altered

O=C(O)CC1CC(c2ccccc2)=NO1 (centres unmarked) [GIT27]
effect on scratching evoked by i.d. miR-146a (4 nmol) (TLR inhibitors) (mice [2]): not significantly altered

O=C1OC2(c3ccccc31)c1ccc(O)c(O)c1Oc1c2ccc(O)c1O [Gallein]
effect on LPC 18:1 (10 μM)-induced Ca2+ influx (GPCR-signaling inhibitors) (hTRPV4): no inhibitory effects; also recorded: not significantly altered | effect on LPC 18:1 (10 μM)-induced Ca2+ influx (GPCR-signaling inhibitors) (mouse keratinocytes): no inhibitory effects; also recorded: not significantly altered | effect on LPC 18:1 (10 μM)-induced Ca2+ influx (GPCR-signaling inhibitors) (human keratinocytes): no inhibitory effects; also recorded: not significantly altered

O=C(CCN1CCN(C(=O)OCc2cc(Cl)cc(Cl)c2)CC1)c1ccc2[nH]c(=O)oc2c1 [PF8380]
effect on LPC-induced itch (autotaxin inhibitor), WT mice (mice [2]; i.p. pretreatment 10 mg/kg, WT mice): attenuated

COc1ccc2c(c1)CC[C@@H]1[C@@H]2CC[C@]2(C)[C@@H](NCCCCCCN3C(=O)C=CC3=O)CC[C@@H]12 [U73122]
effect on LPC 18:1 (10 μM)-induced Ca2+ influx (GPCR-signaling inhibitors) (hTRPV4): no inhibitory effects; also recorded: not significantly altered | effect on LPC 18:1 (10 μM)-induced Ca2+ influx (GPCR-signaling inhibitors) (mouse keratinocytes): no inhibitory effects; also recorded: not significantly altered | effect on LPC 18:1 (10 μM)-induced Ca2+ influx (GPCR-signaling inhibitors) (human keratinocytes): no inhibitory effects; also recorded: not significantly altered

LPC 14:0
scratching behavior (itch) induced by i.d. injection of lipid (mice [1]): caused robust itch

lysophosphatidic acid [LPA (18:1)]
LPA (18:1) induced Ca2+ influx (mouse keratinocytes): not dose-dependent and was less robust than that of LPC | LPA (18:1) induced Ca2+ influx (mouse keratinocytes; listed as LPA): much reduced | scratch bouts (mice [1]; i.d. 500 μg into dorsal neck, WT mice): 58 scratch bouts in 30 min | scratching behavior (itch) induced by i.d. injection of lipid (mice [1]): elicited moderate scratching; also recorded: induced itch | LPA (18:1) induced Ca2+ influx (human keratinocytes): not dose-dependent and was less robust than that of LPC | LPA (18:1) induced Ca2+ influx (human keratinocytes; listed as LPA): much reduced
